Test results: patent publication US10682421B2, “Nanoparticle composition for use in targeting cancer stem cells and method for treatment of cancer” (City University of Hong Kong, priority 2015, dated 2020)

System: LCSCs
Assay: In vitro thermotherapy and chemotherapy under AMF or water bath, MTT assay
Type: cell-based, human
Details: 37° C. under AMF for 30 min, 100 mg/mL for 1 h
Procedure: The AMF was generated by a 5 cm diameter 8-turn induction coil powered by a 3 kW alternating magnetic field generator. LCSCs were seeded in the 6-well plate at a density of 5×10^4 cells/mL. After 24 h incubation, cells were separately treated with 100 mg/mL CD20-Fe3O4@SiNPs, CD20-HSPI&Fe3O4@SiNPs, Fe3O4@SiNPs, HSPI&Fe3O4@SiNPs, SiNPs, and HSPI for 1 h. Cells without treatment were used as control. Following two washes with PBS, cells were placed inside the coil and heated to a defined temperature (between 37 and 50° C.) for 30 min. While frequency was kept constant at 350 kHz and temperature was monitored by using a thermometer immersed in a test tube containing 2 mL of solution. The traditional heating method (water bath heater) was used to compare with AMF heating. Cell survival was assessed by MTT assay.

CO[C@H]1/C=C\C=C(/C)C(=O)NC2=CC(=O)C(NCCN(C)C)=C(C[C@@H](C)C[C@H](OC)[C@H](O)[C@@H](C)/C=C(\C)[C@@H]1OC(N)=O)C2=O [HSPI, 17-(Dimethylaminoethylamino)-17-demethoxygeldanamycin]
cell survival rate: 77%
